Data as given in article PMC4559079 (Journal of Hematology & Oncology, 2015).
Several values for one entry are separate records, joined by “and”; a condition that tells them apart may be missing. Identical values can stand only once. Entries after “also recorded” stand apart in the source; their conditions may differ. Like-named read-outs stand apart in the source and are kept apart here.

Experiments:
[1] = Plasma PK of ixazomib given with lenalidomide–dexamethasone, phase 1 study in East Asian patients with RRMM (LC/MS/MS, non-compartmental analysis); assay type: in vivo, human; conditions: for Accumulation ratio: day 15 AUC0–168/day 1 AUC0–168; for DN AUC0–168 / DN C max: dose-normalized; for Tmax / half-life / Cmax / AUC(0-t): human, plasma; for AUC(0-t): read-out: AUC0–168
Method: Plasma PK parameters were calculated for patients in the safety population following administration of ixazomib on cycle 1 day 1 and/or cycle 1 day 15 provided sufficient concentration–time data were available, the patient had received the protocol-specified ixazomib dosing regimen during cycle 1, and no excluded concomitant medications were received during the PK sampling period. PK parameters were estimated using non-compartmental analysis methods from the ixazomib concentration versus time data. The analyses were performed using Phoenix WinNonlin version 6.2 (Pharsight, Princeton, NJ). PK parameters were summarized, as appropriate, using descriptive statistics. DN AUC data in East Asian patients were compared with data for Western patients, pooled from three phase 1/2 trials of patients with RRMM (NCT00963820), NDMM (NCT01217957), and relapsed/refractory AL amyloidosis (NCT01318902).

[2] = parameters: method as in PMID 24904120, PMID 25456369; conditions: Western patients, pooled from three studies, single agent or with lenalidomide–dexamethasone, cited from earlier work
[3] = parameters: method as in PMID 25377318; conditions: Western patients, cited from earlier work
[4] = ixazomib with lenalidomide and dexamethasone; Western patients with NDMM; cited from earlier work
[5] = cycle 1 day 1, Chinese, geometric mean (% CV)
[6] = cycle 1 day 1, Korean, geometric mean (% CV)
[7] = cycle 1 day 1, Other, geometric mean (% CV)
[8] = cycle 1 day 15, Chinese, geometric mean (% CV)
[9] = cycle 1 day 15, Korean, geometric mean (% CV)
[10] = cycle 1 day 15, Other, geometric mean (% CV)
[11] = po, cycle 1 day 1, Chinese, geometric mean (% CV), 4.0 mg oral + lenalidomide–dexamethasone
[12] = po, cycle 1 day 1, Korean, geometric mean (% CV), 4.0 mg oral + lenalidomide–dexamethasone
[13] = po, cycle 1 day 1, Other, geometric mean (% CV), 4.0 mg oral + lenalidomide–dexamethasone
[14] = po, cycle 1 day 1, Overall, geometric mean (% CV), 4.0 mg oral + lenalidomide–dexamethasone
[15] = po, cycle 1 day 15, Chinese, geometric mean (% CV), 4.0 mg oral + lenalidomide–dexamethasone
[16] = po, cycle 1 day 15, Korean, geometric mean (% CV), 4.0 mg oral + lenalidomide–dexamethasone
[17] = po, cycle 1 day 15, Other, geometric mean (% CV), 4.0 mg oral + lenalidomide–dexamethasone
[18] = po, cycle 1 day 15, Overall, geometric mean (% CV), 4.0 mg oral + lenalidomide–dexamethasone

## CC(C)C[C@H](NC(=O)CNC(=O)c1cc(Cl)ccc1Cl)B(O)O [ixazomib]
[1]; day 1 of dosing, 194 vs 152 ng*h/mL/mg
  difference in geometric mean DN AUC0–168, East Asian vs Western patients (higher): 28%
[1]; day 15, 401 vs 269 ng*h/mL/mg
  difference in geometric mean DN AUC0–168, East Asian vs Western patients (higher): 49%
[1]; Chinese, geometric mean (% CV)
  Accumulation ratio: 2.38 (30)
[1]; Korean, geometric mean (% CV)
  Accumulation ratio: 2.34 (40)
[1]; Other, geometric mean (% CV)
  Accumulation ratio: 2.56 (33)
[1]; [5]
  DN AUC0–168: 233 (83) h*ng/mL/mg
  DN C max: 12.6 (102) ng/mL/mg
[1]; [6]
  DN AUC0–168: 157 (47) h*ng/mL/mg
  DN C max: 5.53 (99) ng/mL/mg
[1]; [7]
  DN AUC0–168: 180 (63) h*ng/mL/mg
  DN C max: 8.93 (118) ng/mL/mg
[1]; cycle 1 day 1, Overall East Asian, geometric mean (% CV)
  DN AUC0–168: 194 [78 % CV] h*ng/mL/mg and 194 (78) h*ng/mL/mg
[1]; cycle 1 day 1, Overall, geometric mean (% CV)
  DN C max: 8.45 (115) ng/mL/mg
[1]; [8]
  DN AUC0–168: 438 (39) h*ng/mL/mg
  DN C max: 12.6 (71) ng/mL/mg
[1]; [9]
  DN AUC0–168: 362 (49) h*ng/mL/mg
  DN C max: 9.51 (67) ng/mL/mg
[1]; [10]
  DN AUC0–168: 383 (81) h*ng/mL/mg
  DN C max: 10.6 (97) ng/mL/mg
[1]; cycle 1 day 15, Overall East Asian, geometric mean (% CV)
  DN AUC0–168: 401 [48 % CV] h*ng/mL/mg and 401 (48) h*ng/mL/mg
[1]; cycle 1 day 15, Overall, geometric mean (% CV)
  DN C max: 11.0 (72) ng/mL/mg
[1]; oral, days 1 and 15 of cycle 1, East Asian patients, with lenalidomide–dexamethasone, read-out: median time to maximum plasma concentration
  Tmax: 1.5 to 2 h
[1]; oral, geometric mean, after multiple dosing, overall East Asian patients, read-out: terminal half-life (converted)
  half-life: 146 h
[1]; oral, terminal disposition phase, cycle 1 day 15, Chinese, geometric mean (% CV), read-out: t1/2 (converted)
  half-life: 148 h
[1]; oral, terminal disposition phase, cycle 1 day 15, Korean, geometric mean (% CV), read-out: t1/2 (converted)
  half-life: 145 h
[1]; oral, terminal disposition phase, cycle 1 day 15, Other, geometric mean (% CV), read-out: t1/2 (converted)
  half-life: 148 h
[1]; oral, terminal disposition phase, cycle 1 day 15, Overall, geometric mean (% CV), read-out: t1/2 (converted)
  half-life: 147 h
[1]; [11]
  Cmax: 50.6 ng/mL
  AUC(0-t): 933 ng·h/mL
[1]; po, cycle 1 day 1, Chinese, median (range), 4.0 mg oral + lenalidomide–dexamethasone, read-out: T max
  Tmax: 1.04 h
[1]; [12]
  Cmax: 22.1 ng/mL
  AUC(0-t): 630 ng·h/mL
[1]; po, cycle 1 day 1, Korean, median (range), 4.0 mg oral + lenalidomide–dexamethasone, read-out: T max
  Tmax: 1.95 h
[1]; [13]
  Cmax: 35.7 ng/mL
  AUC(0-t): 720 ng·h/mL
[1]; po, cycle 1 day 1, Other, median (range), 4.0 mg oral + lenalidomide–dexamethasone, read-out: T max
  Tmax: 1.75 h
[1]; [14]
  Cmax: 33.8 ng/mL
  AUC(0-t): 776 ng·h/mL
[1]; po, cycle 1 day 1, Overall, median (range), 4.0 mg oral + lenalidomide–dexamethasone, read-out: T max
  Tmax: 1.5 h
[1]; [15]
  Cmax: 50.3 ng/mL
  AUC(0-t): 1750 ng·h/mL
[1]; po, cycle 1 day 15, Chinese, median (range), 4.0 mg oral + lenalidomide–dexamethasone, read-out: T max
  Tmax: 2 h
[1]; [16]
  Cmax: 38 ng/mL
  AUC(0-t): 1450 ng·h/mL
[1]; po, cycle 1 day 15, Korean, median (range), 4.0 mg oral + lenalidomide–dexamethasone, read-out: T max
  Tmax: 2 h
[1]; [17]
  Cmax: 42.4 ng/mL
  AUC(0-t): 1530 ng·h/mL
[1]; po, cycle 1 day 15, Other, median (range), 4.0 mg oral + lenalidomide–dexamethasone, read-out: T max
  Tmax: 1.25 h
[1]; [18]
  Cmax: 43.9 ng/mL
  AUC(0-t): 1610 ng·h/mL
[1]; po, cycle 1 day 15, Overall, median (range), 4.0 mg oral + lenalidomide–dexamethasone, read-out: T max
  Tmax: 2 h
Cycle 1, 4.0 mg ixazomib with lenalidomide–dexamethasone
  DLT-evaluable patients experiencing DLTs: 2 of 24
Starting dose 4.0 mg ixazomib, cycle 1, with lenalidomide–dexamethasone
  dose-limiting toxicities in the first six patients: No dose-limiting toxicities; also recorded: no DLTs
Weekly oral ixazomib with lenalidomide–dexamethasone, East Asian patients with RRMM
  recommended phase 2/3 dose (RP2/3D): 4.0 mg
[2]; day 1 of dosing
  geometric mean DN AUC0–168: 152 [95 % CV] ng*h/mL/mg
[2]; day 15
  geometric mean DN AUC0–168: 269 [44 % CV] ng*h/mL/mg
[3]
  MTD: 2.97 mg/m^2
[3]; equates to 2.97 mg/m^2
  MTD, equated to fixed dose: 5.5 mg
[4]
  recommended phase 2/3 dose (RP2/3D): 4.0 mg
